Species: Rattus norvegicus
Experiment: Convulsant activity in Sprague-Dawley rat assessed as partial pressure in atmosphere at which convulsion takes place
Type: functional

Structure (SMILES)	log(1/CON)
FC(F)(F)C(F)(Br)C(F)(F)F	0.13
FC(C(F)C(F)(F)C(F)(F)C(F)(F)F)C(F)(F)F (centres undefined)	2.31
CCCCCCCCC [NONANE]	2.8
CC(F)(F)C(F)(F)F	0.02
CCCCC [PENTANE]	1.16
FC(F)(F)C(F)(Cl)C(F)(Cl)C(F)(F)F (centres undefined)	1.04
FC(Cl)(Cl)OC(F)(F)C(F)(F)Cl	1.36
FC1(F)C(F)(F)[C@@](F)(Cl)[C@]1(F)Cl (relative stereo)	1.19
FC(F)(Br)Br [DIBROMODIFLUOROMETHANE]	1.59
CCCCCCCC [OCTANE]	2.18
FC(F)(Cl)C(F)(Cl)C(F)(Cl)C(F)(F)Cl (centres undefined)	2.52
FC(F)(Cl)C(F)(Cl)Cl	1.36
FC1(F)C(F)(F)C(F)(F)C1(F)F [PERFLUOROCYCLOBUTANE]	0.01
FC(F)OC(F)(Cl)C(F)(F)F (centres undefined)	0.84
FC(F)(Cl)OC(F)(F)C(F)(F)Cl	0.68
Fc1ccc(F)cc1	2.22
FC(F)(F)C(F)(Cl)C(F)(F)F	-0.26
FCOC(F)(F)C(C(F)(F)F)C(F)(F)F	1.43
FC(F)(F)COC(F)(F)Cl	1.63
FC(F)OC(F)(C(F)F)C(F)(F)F (centres undefined)	1.25
C1CCCCCCC1 [CYCLOOCTANE]	2.82
FC(F)C(F)(F)C(F)(F)C(F)(F)C(F)(F)C(F)(F)Br	1.68

Structure (SMILES)	log(1/CON)
FC(F)(Cl)OC(Cl)(Cl)C(F)(F)F	1.61
FC(F)(Cl)OC(F)(Cl)C(F)(F)F (centres undefined)	0.71
FC(F)(F)COC(F)(F)F	0.66
FC(F)(F)COCC(F)(F)F [FLUROTHYL]	2.81
FC(F)(F)C(F)(F)C(F)(F)F [PERFLUTREN]	-0.88
FC1(F)C(F)(F)[C@@](F)(Cl)[C@@]1(F)Cl	1.41
FC(F)C(F)(F)C(F)(F)C(F)(F)F	0.12
Fc1c(F)c(F)c(C(F)(F)F)c(F)c1F [PERFLUOROTOLUENE]	3.46
FC(F)(F)c1cc(C(F)(F)F)cc(C(F)(F)F)c1	1.85
FC(F)(Br)C(F)(F)C(F)(F)C(F)(F)Br	1.86
COC(F)(F)C(F)(F)C(F)(F)C(F)(F)F	0.67
FC(F)(F)C(F)(F)Cl [CHLOROPENTAFLUOROETHANE]	-0.32
FC(F)(F)C(F)(F)C(F)(F)C(F)(F)Br	0.59
COC(F)(F)C(F)(C(F)(F)F)C(F)(F)F	0.67
FC1(F)C(F)(F)C(F)(Cl)C1(F)Cl (racemic)	1.26
FC(F)(F)C(F)(F)Br [BROMOPENTAFLUOROETHANE]	0.02
FC(F)(F)C(F)(F)C(F)(F)Br	0.03
C1CCCCCC1 [CYCLOHEPTANE]	2.34
FC(F)(Cl)C(F)(Cl)C(F)(F)Cl	1.31
FC(F)(Cl)OC(F)(F)C(F)(Cl)Cl	1.52
FC(F)(Cl)C(F)(F)Cl [DICHLOROTETRAFLUOROETHANE]	0.41
C1CCCCC1 [CYCLOHEXANE]	1.66
